In patent publication US20190375786A1, “STABLE PEPTIDES AND METHODS OF USE THEREOF” (Fred Hutchinson Cancer Research Center, priority 2016, published 2019):
Positions of bridges follow the written chain, without caps; N, C: chain ends. Residues, ends and D or L forms follow the SMILES beside them.

Legend:
pepsin = pepsin (Sus scrofa, UniProt P00791); assay: Pepsin digestion resistance in simulated gastric fluid, RP-HPLC; assay type: in vitro ADME, porcine; design: purchased Sigma Aldrich P7012; conditions: 500 U/ml pepsin in SGF pH 1.05, 30 minutes at 37.5° C.; HPLC peak vs untreated peptide
Description: Peptides were first suspended in 500 ul of ddH2O to a stock concentration of 2 mg/ml. Reactions were prepared by adding 12.5 ug of peptide from the stock solution to a 10 mM solution of DTT in PBS and allowed to incubate at room temperature for 30 minutes. Other reactions were prepared with 12.5 μg peptide with or without 500 U/ml pepsin in simulated gastric fluid (SGF; pH 1.05; […] sodium chloride in 0.7% (v/v) hydrochloric acid) and were incubated for 30 minutes at 37.5° C. Some reactions were quenched with a final concentration of 100 mM Tris base and 10 mM dithiothreitol (DTT). Some reactions were performed in all of the above components, including simulated gastric fluid, pepsin, Tris, and DTT (referred to as SPTD). Reversed phase HPLC (RP-HPLC) was run on samples using an Agilent 1260 HPLC equipped with a C-18 Poroshell 120B column. Sample were analyzed by a gradient method with a mobile phase of Solvent A (water with 0.1% TFA) and Solvent B (acetonitrile with 0.1% TFA). Solvent B was ramped up from 5%-45% of the mobile phase over a period of 10 minutes. Peptides were detected at an absorbance of 214 nm and 280 nm.
(§1) Peptides were first suspended in 500 μl of ddH2O to a stock concentration of 2 mg/ml. Reactions were prepared by adding 12.5 μg of peptide from the stock solution to a 10 mM solution of DTT in PBS and allowed to incubate at room temperature for 30 minutes. Other reactions were prepared with 12.5 μg peptide and 500 U/ml trypsin in 25 mM Tris/75 mM NaCl buffer (pH 7.0) and incubated for 30 minutes at 37.5° C. These reactions were then quenched with 5 μg of soybean trypsin inhibitor (I) and, in some cases, 10 mM dithiothreitol (DTT). Reversed phase HPLC (RP-HPLC) was run on samples using an Agilent 1260 HPLC equipped with a C-18 Poroshell 120B column. Sample were analyzed by a gradient method with a mobile phase of Solvent A (water with 0.1% TFA) and Solvent B (acetonitrile with 0.1% TFA). Solvent B was ramped up from 5%-45% of the mobile phase over a period of 10 minutes. For testing pepsin digestion resistance, reactions were prepared with 12.5 μg peptide with or without 500 U/ml pepsin in simulated gastric fluid (SGF; pH 1.05; […] sodium chloride in 0.7% (v/v) hydrochloric acid) and were incubated for 30 minutes at 37.5° C. For testing temperature resistance, peptides were incubated at 70° C., 75° C., or 100° C. for one hour in 0.5 mM PBS, pelleted, and then the supernatant was analyzed by HPLC.
(§2) This example illustrates peptide stability in biological conditions including in the presence of reducing agents, proteases, oxidative conditions, acidic conditions, and simulated gastric fluids. […] Various peptides were suspended in 500 μl of ddH2O at a stock concentration of 2 mg/ml. This was then diluted in accord with the reaction conditions to prevent adverse buffering effects. Reactions were prepared with 12.5 μg peptide dissolved in solution and, in some samples, additionally suspended in a 10 mM solution of DTT, simulated gastric fluid (pH 1.05; […] sodium chloride in 0.7% (v/v) hydrochloric acid), 500 U pepsin (5000 U/ml pepsin), 50 U trypsin (500 U/ml trypsin) with 1 mg/ml inhibitor in PBS, or a combination of any of these conditions. All protease reactions were incubated for 30 min at room temperature and then quenched. Pepsin reactions were quenched by adding Tris base to a final concentration of 0.075 M. Trypsin reactions were quenched by adding excess soybean trypsin inhibitor. RP-HPLC was then run on samples using an Agilent 1260 HPLC equipped with a C-18 Poroshell 120B column. Sample were analyzed by a gradient method with a mobile phase of Solvent A (water with 0.1% TFA) and Solvent B (acetonitrile with 0.1% TFA). Solvent B was ramped up from 5%-45% of the mobile phase over a period of 10 minutes.
FIG. 20 illustrates high performance liquid chromatograph (HPLC) traces of peptides after pepsin digestion. […]

trypsin = trypsin (Sus scrofa, UniProt P00761); assay: Trypsin digestion resistance of soluble peptide, RP-HPLC; assay type: in vitro ADME, porcine; design: purchased Sigma Aldrich 6567; conditions: 500 U/ml trypsin, 30 minutes at 37.5° C.; HPLC peak vs untreated peptide
Description: as §1, §2
Soluble peptides were exposed to 500 U/mL porcine trypsin and analyzed by HPLC. Protease resistance was also assessed by using SDPR-displaying peptides. The SDPR vector is similar to the a surface display GFP FasL(SDGF) vector, but contains a C-terminal 6×His tag (SEQ ID NO: 180) and all basic or aromatic amino acid residues on the stalk removed. Protease resistance is then tested by incubation of cells displaying peptides with trypsin or chymotrypsin, followed by incubation in 10 mM DTT, and staining with an anti-6×His fluorophore-labeled antibody (“6×His” disclosed as SEQ ID NO: 180). If peptides are uncleaved, they retain the His tag and are stained with by the antibody. A control protease-sensitive knottin peptide (SK) was used as a positive control. Cells displaying peptides were treated with up to 40 μg/ml trypsin or chymotrypsin.
FIG. 21 illustrates high performance liquid chromatograph (HPLC) traces of peptides after trypsin digestion. […] The assay was carried out by reconstituting 1 mg porcine trypsin (Sigma Aldrich 6567) in 1 mL of 1 mM HCl. Trypsin was provided at a concentration of 10,000 u/mL and thus, 5 μl of stock solution was equivalent to using 50 U of trypsin in each reaction. Soybean trypsin inhibitor (SA T9128) was prepared at 1 mg/mL of in H2O. […]

Sequence of trypsin (P00761 9-231): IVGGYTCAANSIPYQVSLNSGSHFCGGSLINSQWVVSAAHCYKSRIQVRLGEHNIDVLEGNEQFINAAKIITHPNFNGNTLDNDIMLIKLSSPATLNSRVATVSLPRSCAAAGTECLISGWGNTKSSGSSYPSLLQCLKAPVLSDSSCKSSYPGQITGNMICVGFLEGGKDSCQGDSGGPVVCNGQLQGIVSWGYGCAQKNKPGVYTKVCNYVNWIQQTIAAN
Sequence of pepsin (P00791 60-385): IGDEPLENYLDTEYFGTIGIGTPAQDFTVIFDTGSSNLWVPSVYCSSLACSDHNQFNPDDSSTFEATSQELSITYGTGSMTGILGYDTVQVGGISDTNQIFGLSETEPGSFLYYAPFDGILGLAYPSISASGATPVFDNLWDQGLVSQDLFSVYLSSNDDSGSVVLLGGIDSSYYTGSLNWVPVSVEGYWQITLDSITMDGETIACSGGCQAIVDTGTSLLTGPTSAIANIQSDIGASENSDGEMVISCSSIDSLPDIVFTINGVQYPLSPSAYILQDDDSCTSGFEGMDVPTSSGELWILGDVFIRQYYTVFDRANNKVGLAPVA

SMILES | Resistance to Pepsin (500 U/ml) (pepsin) | Resistance to Trypsin (500 U/ml) (trypsin)
CC[C@H](C)[C@H](NC(=O)[C@H](CC(=O)O)NC(=O)[C@@H](NC(=O)[C@@H]1CCCN1C(=O)[C@H](CCCNC(=N)N)NC(=O)[C@H](CO)NC(=O)CN)[C@@H](C)O)C(=O)N[C@@H](CCCCN)C(=O)N[C@H]1CSSC[C@@H]2NC(=O)[C@H](CCCNC(=N)N)NC(=O)CNC(=O)[C@H](CC(N)=O)NC(=O)[C@H]([C@@H](C)O)NC(=O)[C@H](CCCCN)NC(=O)CNC(=O)[C@H](Cc3ccccc3)NC(=O)[C@H](CCCNC(=N)N)NC(=O)[C@H](CO)NC(=O)[C@H](CCCCN)NC(=O)[C@@H]3CSSC[C@@H](C(=O)N[C@@H](Cc4ccccc4)C(=O)O)NC(=O)[C@H](CC(=O)O)NC(=O)[C@H](CSSC[C@H](NC(=O)[C@H](CCC(N)=O)NC(=O)[C@H](Cc4ccc(O)cc4)NC(=O)[C@H](CO)NC(=O)[C@H](C)NC(=O)[C@H](CO)NC1=O)C(=O)N[C@@H](Cc1ccccc1)C(=O)N1CCC[C@H]1C(=O)N[C@@H](C(C)C)C(=O)N3)NC(=O)[C@H](CC(C)C)NC(=O)CNC(=O)[C@H](CC(N)=O)NC(=O)[C@H](C(C)C)NC2=O [compound 10] (H-GSRPTDIKCSASYQCFPVCKSRFGKTNGRCVNGLCDCF-OH; disulfide 9-30, 15-35, 19-37) | High (A peptide classified as high indicates that the majority (at least 75%) of the HPLC peak of the treated peptide is still present as compared to the HPLC peak of the untreated peptide) | Low (A peptide classified as low indicates that the majority (over 75%) of the HPLC peak of the treated peptide disappeared as compared to the HPLC peak of the untreated peptide)
CSCC[C@@H]1NC(=O)[C@@H]2CSSC[C@H](NC(=O)[C@H](CCCCN)NC(=O)[C@@H](NC(=O)[C@H](CC(=O)O)NC(=O)[C@@H](NC(=O)[C@H](Cc3ccccc3)NC(=O)[C@H](CCC(N)=O)NC(=O)[C@H](CO)NC(=O)CN)[C@@H](C)O)C(C)C)C(=O)N[C@@H]([C@@H](C)O)C(=O)NCC(=O)N[C@@H](CO)C(=O)N[C@@H](CCCCN)C(=O)N[C@@H](CCC(N)=O)C(=O)N[C@H]3CSSC[C@H](NC(=O)[C@H](CCCCN)NC(=O)CNC(=O)[C@H](CC(N)=O)NC1=O)C(=O)N[C@@H](CCCNC(=N)N)C(=O)N[C@H](C(=O)N[C@@H](Cc1ccc(O)cc1)C(=O)N[C@@H](CO)C(=O)O)CSSC[C@H](NC(=O)[C@H](C(C)C)NC(=O)[C@@H]1CCCN1C(=O)[C@H](Cc1c[nH]c4ccccc14)NC3=O)C(=O)N[C@@H](CCCCN)C(=O)N[C@@H](CCC(N)=O)C(=O)N[C@@H](CCSC)C(=O)N[C@@H](Cc1ccccc1)C(=O)NCC(=O)N[C@@H](CCCCN)C(=O)N1CCC[C@H]1C(=O)N[C@@H](CC(N)=O)C(=O)NCC(=O)N[C@@H](CCCCN)C(=O)N2 [compound 12] (H-GSQFTDVKCTGSKQCWPVCKQMFGKPNGKCMNGKCRCYS-OH; disulfide 9-30, 15-35, 19-37) | High (A peptide classified as high indicates that the majority (at least 75%) of the HPLC peak of the treated peptide is still present as compared to the HPLC peak of the untreated peptide) | Moderate (A peptide classified as medium indicates that about half (between 25% and 75%) of the HPLC peak of the treated peptide disappeared as compared to the HPLC peak of the untreated peptide)
CC[C@H](C)[C@@H]1NC(=O)[C@@H]2CSSC[C@@H]3NC(=O)[C@H](CCC(N)=O)NC(=O)[C@H](CO)NC(=O)[C@H]([C@@H](C)O)NC(=O)[C@H](CC(N)=O)NC(=O)[C@H](CO)NC(=O)[C@@H](NC(=O)[C@H](CCCCN)NC(=O)[C@H](CCCCN)NC(=O)[C@H](CC(N)=O)NC(=O)[C@@H](NC(=O)[C@H](CO)NC(=O)[C@@H](NC(=O)[C@H](CCC(N)=O)NC(=O)[C@H](CO)NC(=O)CN)C(C)C)[C@@H](C)O)CSSC[C@H](NC(=O)[C@H](CCCCN)NC(=O)CNC(=O)[C@H](C)NC(=O)[C@H](C)NC(=O)[C@H](C(C)C)NC(=O)CNC(=O)[C@H](C(C)C)NC(=O)[C@H](C(C)C)NC(=O)[C@H](CCCCN)NC(=O)[C@H](CCC(=O)O)NC(=O)[C@H](CSSC[C@@H](C(=O)N[C@@H](Cc4ccc(O)cc4)C(=O)N4CCC[C@H]4C(=O)O)NC1=O)NC(=O)[C@H]([C@@H](C)O)NC(=O)[C@H](CCCCN)NC(=O)[C@H](Cc1ccc(O)cc1)NC3=O)C(=O)N[C@@H](CCSC)C(=O)N[C@@H](CC(N)=O)C(=O)NCC(=O)N[C@@H](CCCCN)C(=O)N2 [compound 18] (H-GSQVSTNKKCSNTSQCYKTCEKVVGVAAGKCMNGKCICYP-OH; disulfide 10-31, 16-36, 20-38) | High (A peptide classified as high indicates that the majority (at least 75%) of the HPLC peak of the treated peptide is still present as compared to the HPLC peak of the untreated peptide) | Low (A peptide classified as low indicates that the majority (over 75%) of the HPLC peak of the treated peptide disappeared as compared to the HPLC peak of the untreated peptide)
CC[C@H](C)[C@H](NC(=O)[C@H](CCCNC(=N)N)NC(=O)[C@@H](NC(=O)[C@H](CO)NC(=O)CN)C(C)C)C(=O)N1CCC[C@H]1C(=O)N[C@H](C(=O)N[C@@H](CO)C(=O)N[C@H]1CSSC[C@@H]2NC(=O)[C@H](CCCCN)NC(=O)CNC(=O)[C@H](Cc3ccccc3)NC(=O)[C@H](CCCNC(=N)N)NC(=O)[C@H](CCSC)NC(=O)CNC(=O)[C@H](C)NC(=O)[C@H](CC(=O)O)NC(=O)[C@H](CCCCN)NC(=O)[C@@H]3CSSC[C@@H](C(=O)N[C@H](C(=O)N4CCC[C@H]4C(=O)N[C@@H](CCCCN)C(=O)O)[C@@H](C)O)NC(=O)[C@H](CC(=O)O)NC(=O)[C@H](CSSC[C@H](NC(=O)[C@H](CCC(N)=O)NC(=O)CNC(=O)[C@H](CO)NC(=O)[C@H](Cc4c[nH]cn4)NC(=O)[C@H](CCCCN)NC1=O)C(=O)N[C@@H](CC(C)C)C(=O)N[C@@H](CCCCN)C(=O)N1CCC[C@H]1C(=O)N3)NC(=O)[C@H](CCCCN)NC(=O)CNC(=O)[C@H](CC(N)=O)NC(=O)[C@H](CCSC)NC2=O)C(C)C [compound 24] (H-GSVRIPVSCKHSGQCLKPCKDAGMRFGKCMNGKCDCTPK-OH; disulfide 9-29, 15-34, 19-36) | High (A peptide classified as high indicates that the majority (at least 75%) of the HPLC peak of the treated peptide is still present as compared to the HPLC peak of the untreated peptide) | Low (A peptide classified as low indicates that the majority (over 75%) of the HPLC peak of the treated peptide disappeared as compared to the HPLC peak of the untreated peptide)
